{
  "source": "patent US20230264009A1",
  "about": "“DISINFECTING CAP KIT FOR LUER ACCESS DEVICES” (SterileCare Inc., priority 2022, published 2023)",
  "key": {"[1]": {"test_system": "Proteus mirabilis ON153 biofilm", "assay": "FBEC index, checkerboard dilution on biofilms", "type": "cell-based", "conditions": "P. mirabilis ON153 biofilm", "protocol": "(§5) In step (4), microtiter plates are incubated at 37° C. for 24 h. then (6), after incubation, the bacterial and fungal cells were dislodged from the pegs into the recovery medium described above.\n(§6) Three 10-µL aliquots, for a total of 30 µL from each well of recovery medium, were spotted on MH agar plates and incubated for 24 h at 37° C. […] The FBEC determination is a modification of the FICI."}, "MRSA ON184 biofilm [2]": {"test_system": "MRSA ON184 biofilm", "assay": "FBEC index, checkerboard dilution on biofilms", "type": "cell-based, Staphylococcus aureus", "protocol": "as §5, §6"}, "[3]": {"test_system": "Escherichia coli SK2 biofilm", "assay": "FBEC index, checkerboard dilution on biofilms", "type": "cell-based", "conditions": "E. coli SK2 biofilm", "protocol": "as §5, §6"}, "E. coli SK2 [4]": {"test_system": "E. coli SK2", "assay": "Checkerboard titration, FICI", "type": "cell-based, Escherichia coli", "procedure": "(§1) A fourth composition and solution included tetrasodium EDTA with ethanol or chlorhexidine HCl. This fourth composition and solution were created using checkerboard titration methods using micro broth dilution in 96-well microtiter plates. The concentrations of antimicrobials used were based on previously determined MIC values. Briefly, 200 µL of two-fold dilutions of tetrasodium EDTA and ethanol or chlorhexidine HCl were prepared in MH or MH II broth with standardized cell suspension. […] Microtiter plates were incubated at 37° C. for 24 h, and the results were analyzed. Each test was performed in duplicate and included a growth control without adding any antimicrobials."}, "E. coli SK2 [5]": {"test_system": "E. coli SK2", "assay": "MIC, micro broth dilution", "type": "cell-based, Escherichia coli", "conditions": "alone, 24 h", "procedure": "(§2) An assay was made using a minimum inhibitory concentration (MIC) and minimum bactericidal concentration (MBC) and minimum fungicidal concentration (MFC) determination. The MIC was determined by the micro broth dilution method in 96-well plates. Serial two-fold dilutions of tetrasodium EDTA (from 2% to 0.015%), ethanol (from 50% to 0.1%) and chlorhexidine HCl (from 100 µg/mL to 0.025 µg/mL) were prepared in MH broth with a final volume of 90 µL per well. A 10 µL containing 1 × 10^5 bacterial cells or 2 × 10^3 fungal cells were added to each well. The inoculated plates were covered with a lid, sealed with Parafilm, and incubated for 24 h at 37° C. with slight rocking on a tilting platform shaker. After incubation, the optical density at 600 nm (OD 600 ) of the cultures in each well was measured using an xMark™ Microplate Absorbance Spectrophotometer (Bio-Rad). […] MBCs and MFCs were determined by transferring 100 µL from each well with no apparent growth onto appropriate agar plates, followed by incubation for 24 h at 37° C."}, "[6]": {"test_system": "Staphylococcus aureus ON89 biofilm", "assay": "FBEC index, checkerboard dilution on biofilms", "type": "cell-based", "conditions": "S. aureus ON89 biofilm", "protocol": "as §5, §6"}, "C. albicans ON47 biofilm": {"test_system": "C. albicans ON47 biofilm", "assay": "MBEC Assay, 48-h biofilm, 24 h exposure", "type": "cell-based, Candida albicans", "procedure": "(§3) A biofilm cultivation cell composition was provided. This fifth composition was created using an MBEC Assay® biofilm inoculator, consisting of a polystyrene lid with 96 downward-protruding pegs and a corresponding base used to grow biofilms. A standardized inoculum was diluted in an appropriate biofilm growth medium to achieve a viable cell count of 1.5 × 10^6 CFU/mL of bacterial cells or […] CFU/mL of fungal cells. Then, 150 µL of this inoculum was transferred into each appropriate well, and the peg lids were inserted into the microtiter plates. The plates were sealed with Parafilm and were incubated at optimum temperature for 48 h with slight rocking for bacteria and shaking at 200 rpm for fungal strains. After incubation, the peg lid was removed from the base and rinsed twice with sterile phosphate-buffered saline (PBS) for 2 min to remove loosely attached non-sessile cells. Before the antimicrobial challenge, the pegs in column 1 (n = 8) were considered the biofilm growth control; these pegs were removed from the lids, placed into 200 µL of recovery medium, and analyzed for starting biofilm cell numbers as described below. […] MBEC values were determined as the minimum concentration of antimicrobials that yielded a viable cell count at or lower than the 125 CFU/mL detection limit."}, "[7]": {"test_system": "Pseudomonas aeruginosa SK1 biofilm", "assay": "FBEC index, checkerboard dilution on biofilms", "type": "cell-based", "conditions": "P. aeruginosa SK1 biofilm", "protocol": "as §5, §6"}, "C. albicans ON47 [8]": {"test_system": "C. albicans ON47", "assay": "MBC/MFC determination", "type": "cell-based, Candida albicans", "conditions": "alone", "procedure": "as §2"}, "[9]": {"test_system": "Candida albicans SK4b biofilm", "assay": "FBEC index, checkerboard dilution on biofilms", "type": "cell-based", "conditions": "C. albicans SK4b biofilm", "protocol": "as §5, §6"}, "MRSA ON184 biofilm [10]": {"test_system": "MRSA ON184 biofilm", "assay": "MBEC Assay, 48-h biofilm, 24 h exposure", "type": "cell-based, Staphylococcus aureus", "procedure": "as §3"}, "C. albicans ON47 [11]": {"test_system": "C. albicans ON47", "assay": "Checkerboard titration, FMCI", "type": "cell-based, Candida albicans", "procedure": "as §2, §1"}, "MRSA ON184": {"test_system": "MRSA ON184", "assay": "MIC, micro broth dilution", "type": "cell-based, Staphylococcus aureus", "conditions": "alone, 24 h", "procedure": "as §2"}, "[12]": {"test_system": "Staphylococcus epidermidis SK9 biofilm", "assay": "FBEC index, checkerboard dilution on biofilms", "type": "cell-based", "conditions": "S. epidermidis SK9 biofilm", "protocol": "as §5, §6"}, "[13]": {"test_system": "Pseudomonas aeruginosa SK1 biofilm", "assay": "MBEC Assay, 48-h biofilm, 24 h exposure", "type": "cell-based", "conditions": "P. aeruginosa SK1", "procedure": "(§4) A biofilm cultivation cell composition was provided. This fifth composition was created using an MBEC Assay® biofilm inoculator, consisting of a polystyrene lid with 96 downward-protruding pegs and a corresponding base used to grow biofilms. A standardized inoculum was diluted in an appropriate biofilm growth medium to achieve a viable cell count of 1.5 × 10^6 CFU/mL of bacterial cells or […] CFU/mL of fungal cells. Then, 150 µL of this inoculum was transferred into each appropriate well, and the peg lids were inserted into the microtiter plates. The plates were sealed with Parafilm and were incubated at optimum temperature for 48 h with slight rocking for bacteria and shaking at 200 rpm for fungal strains. After incubation, the peg lid was removed from the base and rinsed twice with sterile phosphate-buffered saline (PBS) for 2 min to remove loosely attached non-sessile cells. Before the antimicrobial challenge, the pegs in column 1 (n = 8) were considered the biofilm growth control; these pegs were removed from the lids, placed into 200 µL of recovery medium, and analyzed for starting biofilm cell numbers as described below. The rinsed pegs were placed into new 96-well plates containing two-fold dilutions of antimicrobials such as tetrasodium EDTA (4 %-0.0125%), ethanol (100%-0.2%), and chlorhexidine HCl (100 µg/mL-0.4 µg/mL) in 200 µL of suitable biofilm growth medium per well and incubated at optimum temperature for 24 h. After the antimicrobial challenge, the pegs were rinsed twice with sterile PBS for 2 min and placed into a new 96-well plate containing 200 µL of recovery medium. The recovery plates were sealed with Parafilm, and biofilm cells were dislodged from the pegs by sonication for 30 min with a Branson 3510 bath sonicator. The biofilm cells in the recovery medium were serially diluted, and a drop dilution assay was performed to enumerate the viable cells. MBEC values were determined as the minimum concentration of antimicrobials that yielded a viable cell count at or lower than the 125 CFU/mL detection limit."}, "[14]": {"test_system": "Candida albicans SK4b biofilm", "assay": "MBEC Assay, 48-h biofilm, 24 h exposure", "type": "cell-based", "conditions": "C. albicans SK4b", "procedure": "as §4"}, "[15]": {"test_system": "Proteus mirabilis ON153 biofilm", "assay": "MBEC Assay, 48-h biofilm, 24 h exposure", "type": "cell-based", "conditions": "P. mirabilis ON153", "procedure": "as §4"}, "[16]": {"test_system": "Escherichia coli SK2 biofilm", "assay": "MBEC Assay, 48-h biofilm, 24 h exposure", "type": "cell-based", "conditions": "E. coli SK2", "procedure": "as §4"}, "[17]": {"test_system": "Staphylococcus aureus ON89 biofilm", "assay": "MBEC Assay, 48-h biofilm, 24 h exposure", "type": "cell-based", "conditions": "S. aureus ON89", "procedure": "as §4"}, "[18]": {"test_system": "Staphylococcus epidermidis SK9 biofilm", "assay": "MBEC Assay, 48-h biofilm, 24 h exposure", "type": "cell-based", "conditions": "S. epidermidis SK9", "procedure": "as §4"}, "[19]": {"conditions": "tetrasodium EDTA + chlorhexidine HCl"}},
  "data": [
    {"smiles": "O=C([O-])CN(CCN(CC(=O)[O-])CC(=O)[O-])CC(=O)[O-].[Na+].[Na+].[Na+].[Na+]", "note": "[EDTA, tetrasodium EDTA]", "values": [
      {"measurement": "FBEC (concentration in combination)", "setting": "[1]; [19]", "value": 0.125, "unit": "% w/v"},
      {"measurement": "FBEC (concentration in combination)", "setting": "[1]; tetrasodium EDTA + ethanol", "value": 0.125, "unit": "% w/v"},
      {"measurement": "FBEC (concentration in combination)", "setting": "MRSA ON184 biofilm [2]; [19]", "value": 0.031, "unit": "% w/v"},
      {"measurement": "FBEC (concentration in combination)", "setting": "MRSA ON184 biofilm [2]; tetrasodium EDTA + ethanol", "value": 0.063, "unit": "% w/v"},
      {"measurement": "FBEC (concentration in combination)", "setting": "[3]; [19]", "value": 0.031, "unit": "% w/v"},
      {"measurement": "FBEC (concentration in combination)", "setting": "[3]; tetrasodium EDTA + ethanol", "value": 0.125, "unit": "% w/v"},
      {"measurement": "Concentration in combination giving FICI", "setting": "E. coli SK2 [4]; [19]", "value": 0.008, "unit": "% w/v"},
      {"measurement": "Concentration in combination giving FICI", "setting": "E. coli SK2 [4]; tetrasodium EDTA + ethanol", "value": 0.015, "unit": "% w/v"},
      {"measurement": "MIC", "setting": "E. coli SK2 [5]", "value": 0.5, "unit": "% w/v"},
      {"measurement": "FBEC (concentration in combination)", "setting": "[6]; [19]", "value": 0.125, "unit": "% w/v"},
      {"measurement": "FBEC (concentration in combination)", "setting": "[6]; tetrasodium EDTA + ethanol", "value": 0.063, "unit": "% w/v"},
      {"measurement": "MBEC", "setting": "C. albicans ON47 biofilm", "value": 1, "unit": "% w/v"},
      {"measurement": "FBEC (concentration in combination)", "setting": "[7]; [19]", "value": 0.25, "unit": "% w/v"},
      {"measurement": "FBEC (concentration in combination)", "setting": "[7]; tetrasodium EDTA + ethanol", "value": 0.125, "unit": "% w/v"},
      {"measurement": "MBC/MFC", "setting": "C. albicans ON47 [8]", "value": 1, "unit": "% w/v"},
      {"measurement": "FBEC (concentration in combination)", "setting": "[9]; [19]", "value": 0.063, "unit": "% w/v"},
      {"measurement": "FBEC (concentration in combination)", "setting": "[9]; tetrasodium EDTA + ethanol", "value": 0.125, "unit": "% w/v"},
      {"measurement": "MBEC", "setting": "MRSA ON184 biofilm [10]", "value": 2, "unit": "% w/v"},
      {"measurement": "Concentration in combination giving FMCI", "setting": "C. albicans ON47 [11]; [19]", "value": 0.031, "unit": "% w/v"},
      {"measurement": "Concentration in combination giving FMCI", "setting": "C. albicans ON47 [11]; tetrasodium EDTA + ethanol", "value": 0.25, "unit": "% w/v"},
      {"measurement": "MIC", "setting": "MRSA ON184", "value": 0.063, "unit": "% w/v"},
      {"measurement": "FBEC (concentration in combination)", "setting": "[12]; [19]", "value": 0.125, "unit": "% w/v"},
      {"measurement": "FBEC (concentration in combination)", "setting": "[12]; tetrasodium EDTA + ethanol", "value": 0.031, "unit": "% w/v"},
      {"measurement": "MBEC", "setting": "[13]", "value": 4, "unit": "% w/v"},
      {"measurement": "MBEC", "setting": "[14]", "value": 1, "unit": "% w/v"},
      {"measurement": "MBEC", "setting": "[15]", "value": 4, "unit": "% w/v"},
      {"measurement": "MBEC", "setting": "[16]", "value": 2, "unit": "% w/v"},
      {"measurement": "MBEC", "setting": "[17]", "value": 4, "unit": "% w/v"},
      {"measurement": "MBEC", "setting": "[18]", "value": 2, "unit": "% w/v"}
    ]}
  ]
}
